In patent US11827639B2, “TDO2 and IDO1 inhibitors” (Genentech, Inc., priority 2017, dated 2023) one finds EC50 data, which are given here for 37 compounds.

The target in experiment [1] is T1, IDO1 (Homo sapiens, UniProt P14902).
Procedure: (§1) The NFK GreenScreen™ (NTRC, Netherlands) uses a specific chemical probe that binds to N-Formylkynurenine (NFK), a product of tryptophan catabolism facilitated by IDO or TDO and causes fluorescence at 510 nm when excited at 410 nm. […] The assay is multiplexed with Cell Titer-Glo® (Promega) to determine if compounds are cytotoxic. […] Cells are counted on a Vi-Cell (Beckman Coulter). SW48 cells are diluted to 1×10^6 cells/ml in assay media. A172 cells are diluted to 0.24×10^6 cells/ml in assay media. […] 5 ul of assay media containing 1.2 mM tryptophan are added to the SW48 cells for a final concentration of 200 uM tryptophan in each well. 5 ul of assay media containing 600 uM tryptophan and 600 ng/ml IFNγ are added to the A172 cells for a final concentration of 100 uM tryptophan and 100 ng/ml IFNγ in each well. The final DMSO concentration is 0.5%. Cell plates are placed at room temperature in a closed TC hood with the blower off to allow cells to settle for approximately 30 min. Plates are then moved to an incubator set at 37° C., 5% CO2 for 24 hours. After the 24 hour compound incubation, 8 ul of NFK green reagent is added to each well with a Multidrop™ Combi dispenser (Thermo Scientific). Plates are sealed and incubated at 37° C., 5% CO2 for 5 hours, then read on a PHERAstar® (BMG labtech). Data are analyzed by normalizing to DMSO and high inhibitor controls. After the plates have been read for NFK green, 25 ul of Cell Titer-Glo® (Promega) are added to each well, incubated for 15 minutes at room temperature, and read on the Envision (Perkin Elmer). Cell Titer-Glo data are analyzed by normalizing to the DMSO controls. Four-parameter curve fitting is used and EC50 data are reported.
The target in experiment [2] is T2, TDO2 (Homo sapiens, UniProt P48775). Kind of experiment: TDO2 cell assay (NFK GreenScreen) in SW48 cells. As to conditions: read-out: TDO2 cell Fluor EC50, NFK GreenScreen fluorescence.
Procedure: as §1
The target of experiment [3] is T2, TDO2. Kind of experiment: cell-based.
Procedure: as §1
The target of experiment [4] is T1, IDO1. Kind of experiment: cell-based.
Procedure: as §1

Read-outs that look alike come from different tables or passages of the source.

As a reminder, the EC50 is the concentration at which the effect is half-maximal.

T1 sequence (P14902 whole entry): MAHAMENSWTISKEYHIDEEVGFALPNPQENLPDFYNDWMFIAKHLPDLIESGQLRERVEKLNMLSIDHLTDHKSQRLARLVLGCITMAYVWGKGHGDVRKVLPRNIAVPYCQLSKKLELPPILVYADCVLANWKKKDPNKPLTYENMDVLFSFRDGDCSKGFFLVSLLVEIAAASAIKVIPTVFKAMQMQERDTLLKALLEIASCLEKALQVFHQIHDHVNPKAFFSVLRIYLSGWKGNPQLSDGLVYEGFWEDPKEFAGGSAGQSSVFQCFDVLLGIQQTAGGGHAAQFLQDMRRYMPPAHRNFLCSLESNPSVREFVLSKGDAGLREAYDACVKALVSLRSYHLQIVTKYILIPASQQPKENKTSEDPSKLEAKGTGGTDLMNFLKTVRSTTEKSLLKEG
T2 sequence (P48775 whole entry): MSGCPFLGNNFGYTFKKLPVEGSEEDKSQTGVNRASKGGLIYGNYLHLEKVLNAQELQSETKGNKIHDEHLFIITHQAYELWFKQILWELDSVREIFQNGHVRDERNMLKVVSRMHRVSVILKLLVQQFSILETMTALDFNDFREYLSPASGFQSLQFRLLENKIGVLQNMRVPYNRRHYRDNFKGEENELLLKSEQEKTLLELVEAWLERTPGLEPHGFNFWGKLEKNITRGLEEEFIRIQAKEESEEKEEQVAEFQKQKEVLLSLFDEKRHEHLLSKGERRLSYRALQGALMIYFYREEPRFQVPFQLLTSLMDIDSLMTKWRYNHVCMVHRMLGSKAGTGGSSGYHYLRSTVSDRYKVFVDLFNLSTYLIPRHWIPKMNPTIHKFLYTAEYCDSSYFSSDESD

As to `c1ccc2c(c1)-c1cncn1[C@H]2C1CCCCC1` [Example 19b], the EC50 in experiment [1] worked out at 416 nM; in experiment [2], 33 nM.
With `Fc1cc(Cl)cc(C2c3ccccc3-c3cncn32)c1` (centres unmarked) [Example 40, 5-(3-chloro-5-fluorophenyl)-5H-imidazo[5,1-a]isoindole], the EC50 in experiment [3] amounted to 290 nM; in experiment [4], 3800 nM.
For `c1ccc2c(c1)-c1cncn1C2C1CCC2(CC1)OCCO2` (centres unmarked) [Example 26, 5-(1,4-dioxaspiro[4.5]decan-8-yl)-5H-imidazo[5,1-a]isoindole], the EC50 in experiment [3] is 3200 nM; in experiment [4] it was 9700 nM.
The corresponding values for `NS(=O)(=O)c1cccc(C2c3ccccc3-c3cncn32)c1` (single isomer, unassigned) [Example 07b] are 790 nM and 6500 nM.
The matching figures for `NC(=O)C1CCC(C2c3ccccc3-c3cncn32)CC1` (single isomer, unassigned) [Example 60d]: 10000 nM and 17000 nM.
The matching figures for `CC1(O)CCC(C2c3ccccc3-c3cncn32)CC1` (centres unmarked) [Example 70, 4-(5H-imidazo[5,1-a]isoindol-5-yl)-1-methylcyclohexan-1-ol]: 180 nM and 860 nM.
For `CC(C)(C)OC(=O)N1CC2(CCC(C3c4ccccc4-c4cncn43)CC2)C1` (centres unmarked) [Example 76, tert-butyl 7-(5H-imidazo[5,1-a]isoindol-5-yl)-2-azaspiro[3.5]nonane-2-carboxylate], the concentration giving a half-maximal response (EC50) in experiment [3] was found to be 1800 nM; in experiment [4], 140 nM.
Regarding `CS(=O)(=O)N1CCCC(C2c3ccccc3-c3cncn32)C1` (centres unmarked) [Example 71, 5-(1-(methylsulfonyl)piperidin-3-yl)-5H-imidazo[5,1-a]isoindole], the values for the EC50 in experiment [3] and in experiment [4] were 560 nM and 14000 nM, respectively.
For the compound `Fc1cccc(C2c3ccccc3-c3cncn32)c1` (centres unmarked) [Example 30, 5-(3-fluorophenyl)-5H-imidazo[5,1-a]isoindole], the results for the EC50 in experiment [3] and in experiment [4] were 340 nM and 5000 nM, respectively.
The matching figures for `NS(=O)(=O)N1CC2(CC(C3c4ccccc4-c4cncn43)C2)C1` (centres unmarked) [Example 66, 6-(5H-imidazo[5,1-a]isoindol-5-yl)-2-azaspiro[3.3]heptane-2-sulfonamide]: 1100 nM and 20000 nM.
Consider `Cn1cc(C2c3ccccc3-c3cncn32)ccc1=O` (single isomer, unassigned) [Example 84b], for which the EC50 in experiment [3] is 360 nM; in experiment [4] it was 12000 nM.
On to `c1ccc2c(c1)-c1cncn1C2C1CCC1` (centres unmarked) [Example 34, 5-cyclobutyl-5H-imidazo[5,1-a]isoindole], for which the EC50 in experiment [3] stood at 990 nM; in experiment [4], 2400 nM.
For `CS(=O)(=O)N1CCC2(CC1)CC(C1c3ccccc3-c3cncn31)C2` (centres unmarked) [Example 59, 5-(7-(methylsulfonyl)-7-azaspiro[3.5]nonan-2-yl)-5H-imidazo[5,1-a]isoindole], the EC50 is 240 nM in experiment [3] and 1500 nM in experiment [4].
The matching figures for `NC(=O)c1cc(F)cc(C2c3ccccc3-c3cncn32)c1` (centres unmarked) [Example 51, 3-fluoro-5-(5H-imidazo[5,1-a]isoindol-5-yl)benzamide]: 120 nM and 3100 nM.
The matching figures for `C1=C(C2c3ccccc3-c3cncn32)CCn2cccc21` (centres unmarked) [Example 04, 5-(5,6-dihydroindolizin-7-yl)-5H-imidazo[5,1-a]isoindole]: 2300 nM and 12000 nM.
The corresponding values for `c1ccc2c(c1)-c1cncn1[C@@H]2C1CCCCC1` [Example 19a] are 17000 nM and 10000 nM.
Turning to `CS(=O)(=O)c1ccc(C2c3ccccc3-c3cncn32)cc1` (centres unmarked) [Example 56, 5-(4-(methylsulfonyl)phenyl)-5H-imidazo[5,1-a]isoindole], the EC50 in experiment [3] turned out to be 640 nM; in experiment [4], 4600 nM.
The matching figures for `Fc1cc(F)cc(C2c3ccccc3-c3cncn32)c1` (centres unmarked) [Example 45, 5-(3,5-difluorophenyl)-5H-imidazo[5,1-a]isoindole]: 140 nM and 1900 nM.
`O=C(C1CC1)N1CCC(C2c3ccccc3-c3cncn32)CC1` (centres unmarked) [Example 18, (4-(5H-imidazo[5,1-a]isoindol-5-yl)piperidin-1-yl)(cyclopropyl)methanone]: the EC50 in experiment [3] turned out to be 9600 nM; in experiment [4], 19000 nM.
The corresponding values for `c1ccc2c(c1)-c1cncn1C2C1CC2(COC2)C1` (centres unmarked) [Example 39, 5-(2-oxaspiro[3.3]heptan-6-yl)-5H-imidazo[5,1-a]isoindole] are 590 nM and 11000 nM.
The matching figures for `O=S(=O)(NC1CC1)N1CCC(C2c3ccc(F)cc3-c3cncn32)CC1` (centres unmarked) [Example 89, N-cyclopropyl-4-(8-fluoro-5H-imidazo[5,1-a]isoindol-5-yl)piperidine-1-sulfonamide]: 220 nM and 5900 nM.
The corresponding values for `N#Cc1cccc(C2c3ccccc3-c3cncn32)c1` (centres unmarked) [Example 17, 3-(5H-imidazo[5,1-a]isoindol-5-yl)benzonitrile] are 2000 nM and 16000 nM.
As to `Cn1ncc2cc(C3c4ccccc4-c4cncn43)ccc21` (centres unmarked) [Example 55b], the EC50 in experiment [3] came out at 780 nM; in experiment [4] it was 8100 nM.
The matching figures for `Cc1cccc(C2c3ccccc3-c3cncn32)c1` (centres unmarked) [Example 21, 5-(m-tolyl)-5H-imidazo[5,1-a]isoindole]: 360 nM and 9700 nM.
The matching figures for `CC1(C)CC(C2c3ccccc3-c3cncn32)C1` (centres unmarked) [Example 67, 5-(3,3-dimethylcyclobutyl)-5H-imidazo[5,1-a]isoindole]: 210 nM and 900 nM.
The corresponding values for `CS(=O)(=O)N1CC2(CC(C3c4ccccc4-c4cncn43)C2)C1` (single isomer, unassigned) [Example 72a] are 730 nM and 3000 nM.
Take `CS(=O)(=O)N1CC2(CCC(C3c4ccccc4-c4cncn43)CC2)C1` (single isomer, unassigned) [Example 78a]: the EC50 in experiment [3] stood at 10000 nM; in experiment [4], 18000 nM.
With `c1ccc2c(c1)-c1cncn1C2C1CCc2ccncc2C1` (centres unmarked) [Example 46, 5-(5,6,7,8-tetrahydroisoquinolin-7-yl)-5H-imidazo[5,1-a]isoindole], the EC50 in experiment [3] came out at 27 nM; in experiment [4] it was 2000 nM.
The corresponding values for `OCc1cc(F)cc(C2c3ccccc3-c3cncn32)c1` (single isomer, unassigned) [Example 09a] are 690 nM and 21000 nM.
The matching figures for `O=S(=O)(N1CCC1)N1CCC(C2c3ccc(F)cc3-c3cncn32)CC1` (centres unmarked) [Example 88, 5-(1-(azetidin-1-ylsulfonyl)piperidin-4-yl)-8-fluoro-5H-imidazo[5,1-a]isoindole]: 900 nM and 5300 nM.
The matching figures for `CC(C)CC1c2ccccc2-c2cncn21` (centres unmarked) [Example 53, 5-isobutyl-5H-imidazo[5,1-a]isoindole]: 870 nM and 4400 nM.
Take `C[C@H](O)c1cccc([C@H]2c3ccccc3-c3cncn32)c1` [Example 10a, (S)-1-(3-((S)-5H-imidazo[5,1-a]isoindol-5-yl)phenyl)ethan-1-ol]: the EC50 was 320 nM in experiment [3] and 5000 nM in experiment [4].
As to `NS(=O)(=O)N1CCC(C2c3ccc(F)cc3-c3cncn32)CC1` (single isomer, unassigned) [Example 74b], the EC50 turned out to be 64 nM in experiment [3] and 4800 nM in experiment [4].
`OCc1cccc([C@H]2c3ccccc3-c3cncn32)c1` [Example 01b, (S)-(3-(5H-imidazo[5,1-a]isoindol-5-yl)phenyl)methanol]: the EC50 in experiment [3] amounted to 310 nM; in experiment [4] it was 8500 nM.
The corresponding values for `CS(=O)(=O)C1CCC(C2c3ccccc3-c3cncn32)CC1` (single isomer, unassigned) [Example 83b] are 770 nM and 2300 nM.
The matching figures for `c1ccc2c(c1)-c1cncn1C2C1CCOCC1` (centres unmarked) [Example 14, 5-(tetrahydro-2H-pyran-4-yl)-5H-imidazo[5,1-a]isoindole]: 810 nM and 15000 nM.
The corresponding values for `OCc1cc(F)cc(C2c3ccccc3-c3cncn32)c1` (single isomer, unassigned) [Example 09b] are 96 nM and 3300 nM.
